According to BindingDB's records for doi:10.1111/j.1747-0285.2009.00905.x (Ariad Pharmaceuticals, 2010):

Tests used:
[1] = target: Proto-oncogene tyrosine-protein kinase Src (Homo sapiens, UniProt P12931); experiment: In vitro kinase assay using Abl, Abl T315I or Src kinase.
[2] = target: Tyrosine-protein kinase ABL1 (Homo sapiens, UniProt P00519); experiment: In Vitro Kinase Assay
[3] = target: Tyrosine-protein kinase ABL1 [T315I] (Homo sapiens, UniProt P00519, T315I); experiment: In Vitro Kinase Assay

Proto-oncogene tyrosine-protein kinase Src, sequence (P12931 whole entry, looked up): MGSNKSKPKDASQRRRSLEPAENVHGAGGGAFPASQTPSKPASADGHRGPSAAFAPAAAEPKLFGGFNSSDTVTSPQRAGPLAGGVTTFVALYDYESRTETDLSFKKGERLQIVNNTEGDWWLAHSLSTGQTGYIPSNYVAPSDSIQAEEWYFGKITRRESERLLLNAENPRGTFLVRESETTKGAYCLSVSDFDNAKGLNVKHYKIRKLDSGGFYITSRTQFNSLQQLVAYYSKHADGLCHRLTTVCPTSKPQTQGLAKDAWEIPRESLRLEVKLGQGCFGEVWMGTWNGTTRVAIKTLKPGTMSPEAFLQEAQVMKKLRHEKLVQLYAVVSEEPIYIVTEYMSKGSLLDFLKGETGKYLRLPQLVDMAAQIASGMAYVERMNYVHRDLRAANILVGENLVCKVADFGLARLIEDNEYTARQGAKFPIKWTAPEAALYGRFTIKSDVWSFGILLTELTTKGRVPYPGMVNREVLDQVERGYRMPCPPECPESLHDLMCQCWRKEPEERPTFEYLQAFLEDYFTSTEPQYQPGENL

SMILES | IC50 [1] | IC50 [2] | IC50 [3]
Cc1ccc2[nH]ncc2c1/C=C/n1cnc2c(Nc3ccc(P(C)(C)=O)cc3)ncnc21 | < 0.5 nM | < 0.5 nM | > 10000 nM
Cc1cccc(C)c1/C=C/n1cnc2c(Nc3ccc(P(C)(C)=O)cc3)ncnc21 [AP24149] | 9.1 nM | – | 8900 nM
